IC50 data for 23 compounds are collected here from US10626112B2, “Heterocyclic sulfonamide derivative and medicine comprising same” (EA PHARMA CO., LTD., priority 2014, dated 2020).

T1 sequence (O75762 whole entry): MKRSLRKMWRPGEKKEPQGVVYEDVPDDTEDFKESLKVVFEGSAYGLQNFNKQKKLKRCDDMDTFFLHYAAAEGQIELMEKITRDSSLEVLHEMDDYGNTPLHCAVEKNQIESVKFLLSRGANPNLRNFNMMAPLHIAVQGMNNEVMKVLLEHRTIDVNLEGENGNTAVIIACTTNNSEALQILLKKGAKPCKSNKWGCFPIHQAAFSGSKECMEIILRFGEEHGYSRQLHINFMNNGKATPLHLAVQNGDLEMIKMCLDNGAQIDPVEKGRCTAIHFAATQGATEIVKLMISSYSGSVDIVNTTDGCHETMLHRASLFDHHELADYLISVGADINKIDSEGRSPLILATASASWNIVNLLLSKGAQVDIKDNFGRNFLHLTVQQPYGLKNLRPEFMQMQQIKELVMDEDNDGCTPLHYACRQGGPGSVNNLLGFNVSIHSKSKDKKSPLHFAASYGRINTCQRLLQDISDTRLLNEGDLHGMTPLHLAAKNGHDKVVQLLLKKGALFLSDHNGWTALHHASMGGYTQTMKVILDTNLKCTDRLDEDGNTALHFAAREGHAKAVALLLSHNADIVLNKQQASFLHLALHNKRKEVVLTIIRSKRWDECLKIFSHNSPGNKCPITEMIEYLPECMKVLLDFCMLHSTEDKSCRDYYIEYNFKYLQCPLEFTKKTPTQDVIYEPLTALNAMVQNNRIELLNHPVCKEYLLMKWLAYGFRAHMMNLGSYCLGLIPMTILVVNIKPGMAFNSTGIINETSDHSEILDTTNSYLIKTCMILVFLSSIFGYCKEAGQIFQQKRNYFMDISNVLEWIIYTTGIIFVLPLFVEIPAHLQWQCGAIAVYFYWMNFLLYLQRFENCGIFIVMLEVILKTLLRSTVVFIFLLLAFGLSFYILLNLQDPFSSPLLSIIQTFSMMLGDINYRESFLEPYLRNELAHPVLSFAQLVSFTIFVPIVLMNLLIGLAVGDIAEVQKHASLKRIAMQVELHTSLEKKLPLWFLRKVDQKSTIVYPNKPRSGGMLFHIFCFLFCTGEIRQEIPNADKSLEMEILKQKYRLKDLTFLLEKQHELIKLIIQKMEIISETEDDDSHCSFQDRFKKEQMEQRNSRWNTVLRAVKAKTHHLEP

One assay concerns the target T1, human TRPA1 (Homo sapiens (Human), UniProt O75762). Nature of the assay: Measurement of TRPA1 antagonist activity (1): intracellular calcium increase. The class given is cell-based. To be noted: 293T cells transfected with human TRPA1 expression plasmid; allylisothiocyanate 20 μM stimulation; intracellular calcium fluorescence; read-out: hTRPA1 IC50. In outline: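 HEK293T cells transiently transfected with full-length human TRPA1, loaded with Calcium4 dye in HBSS/20 mM HEPES pH 7.2. Test compound preincubated 10 min, then allylisothiocyanate added at 20 μM final and fluorescence change followed for 5 min. IC50 from sigmoid fit of percent inhibition relative to agonist and buffer controls.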
In general terms: Calcium flux is commonly read through the fluorescence of an indicator in the cells.
The IC50 is the point on the concentration scale where inhibition reaches its midpoint. Regarding `O=C(NCc1cccc(-c2ccc(C(F)(F)F)cc2O)n1)[C@@H]1CCCN1S(=O)(=O)c1cc2cc(F)ccc2o1` [Example 147, (2S)-1-(5-fluorobenzofuran-2-yl)sulfonyl-N-[[6-[2-hydroxy-4-(trifluoromethyl)phenyl]-2-pyridyl]methyl]pyrrolidine-2-carboxamide], the IC50 turned out to be 180 nM.
Turning to `N#Cc1cccc(COc2cccc(CNC(=O)[C@@H]3CCCN3S(=O)(=O)c3cc4ccccc4o3)c2)c1` [Example 2, (2S)-1-(benzofuran-2-ylsulfonyl)-N-[[3-[(3-cyanophenyl)methoxy]phenyl]methyl]pyrrolidine-2-carboxamide], the half-inhibitory concentration (IC50) worked out at 7.9 nM.
In the case of `O=C(NCc1ccc(OC(F)(F)F)cc1)[C@@H]1CCCN1S(=O)(=O)c1cc2cc(F)ccc2o1` [Example 66, (2S)-1-(5-fluorobenzofuran-2-yl)sulfonyl-N-[[4-(trifluoromethoxy)phenyl]methyl]-pyrrolidine-2-carboxamide], the IC50 is 21 nM.
Same read-out and setting: in the case of `C[C@H](NS(=O)(=O)c1cc2cc(F)ccc2o1)C(=O)NCc1cc(-c2cnc(C(F)(F)F)nc2)ccn1` [Example 241, (2S)-2-[(5-fluorobenzofuran-2-yl)sulfonylamino]-N-[[4-[2-(trifluoromethyl)pyrimidin-5-yl]-2-pyridyl]methyl]propanamide] it was 75 nM.
Consider `C[C@H](NS(=O)(=O)c1cc2cc(F)ccc2o1)C(=O)NCc1cncc(-c2ccc(C(F)(F)F)nc2)c1` [Example 245, (2S)-2-[(5-fluorobenzofuran-2-yl)sulfonylamino]-N-[[5-[6-(trifluoromethyl)-3-pyridyl]-3-pyridyl]methyl]propanamide], for which the half-inhibitory concentration (IC50) was determined as 120 nM.
Still for that read-out and setting: in the case of `C[C@H](NS(=O)(=O)c1cc2cc(F)ccc2o1)C(=O)NCc1ccc(O)c(-c2ccc(C(F)(F)F)cn2)c1` [Example 252, (2S)-2-[(5-fluorobenzofuran-2-yl)sulfonylamino]-N-[[4-hydroxy-3-[5-(trifluoromethyl)-2-pyridyl]-phenyl]methyl]propanamide] it was 14 nM; in that of `C[C@H](NS(=O)(=O)c1cc2ccccc2o1)C(=O)NCc1cccc(OCC2CCOCC2)c1` [Example 183, (2S)-2-(benzofuran-2-ylsulfonylamino)-N-[[3-(tetrahydropyran-4-ylmethoxy)phenyl]methyl]propanamide], 570 nM; in that of `Cc1ccc2oc(S(=O)(=O)N3CCC[C@H]3C(=O)NCc3cccc(-c4ccc(C(F)(F)F)nc4)c3)cc2c1` [Example 111, (2S)-1-(5-methylbenzofuran-2-yl)sulfonyl-N-[[3-[6-(trifluoromethyl)-3-pyridyl]phenyl]methyl]pyrrolidine-2-carboxamide], 130 nM.

The target in the next assay is T1, human TRPA1. Nature of the assay: Measurement of TRPA1 antagonist activity (2): as (1), different lot of human TRPA1 expression plasmid. It is filed as cell-based. To be noted: 293T cells transfected with human TRPA1, allylisothiocyanate 20 μM stimulation, calcium fluorescence, read-out: hTRPA1 IC50. The procedure: Human embryonic kidney-derived 293T cells were cultured in Dulbecco's Modified Eagle Medium containing 10% fetal bovine serum, 10 unit penicillin, and 10 μg streptomycin, plated on a petri dish having a diameter of 10 cm at 3×10^6 cells, and cultured for 24 hr in a CO2 incubator. A reduced serum medium (manufactured by Invitrogen, trade name: OPTI-MEM, 600 μL), a gene transfer reagent (manufactured by Mirus Bio, trade name: Mirus TransIT-293, 18 μL), and human TRPA1 expression plasmid (6 μg) were mixed, the total amount of the mixture was added to the cells on the petri dish to allow for gene transfer. The cells were recovered about for 8 hr later, plated on a poly-D-lysine coated 384 well black/clear bottom plate at 12,000 cells/well, and cultured overnight.
Measurement of Intracellular Calcium Increase
The 384 well plate was recovered, and the medium was removed. A calcium-bonded fluorescent indicator (manufactured by Molecular Device, trade name: Calcium4 Assay Kit, 38 μL) dissolved in assay buffer (1×HBSS, 20 mM HEPES, pH 7.2) was added, and the cells were stained in a CO2 incubator for 1 hr. The cells were taken out at room temperature, stood for not less than 15 min, a test substance (10 μL) was added by a platereader FDSS7000 (Hamamatsu Photonics K.K.) equipped with a 384ch dispenser. After 10 min, allylisothiocyanate (12 μL) was further added at a final concentration of 20 μM, and changes in the relative fluorescence intensity after addition of allylisothiocyanate were measured for 5 min.
Test Substance Preparation
The test substance was dissolved in dimethyl sulfoxide and serially diluted with an assay buffer containing 0.1% bovine serum albumin (1×HBSS, 20 mM HEPES, pH 7.2) to a 4.8-fold concentration of the evaluation concentration. Allylisothiocyanate, which is a known TRPA1 activator, was dissolved in dimethyl sulfoxide to 100 mM, and further diluted 5-fold (100 μM) of the final concentration, like the test substance.
Calculation of Antagonist Activity
Under the test substance-free conditions, the maximum variation range of the fluorescence intensity before and after allylisothiocyanate stimulation was defined to be 100% activity rate, and the variation range before and after buffer stimulation was defined as 0% activity rate. The activity rate on addition of the test substance was determined, and the numerical value obtained by subtracting the activity rate from 100 was defined to be an inhibitory rate. IC50, which is the concentration of the test substance necessary for reaching the 50% inhibitory rate, was calculated from the sigmoid approximate curve by a spreadsheet software Excel-Fit.
Measurement of TRPA1 Antagonist Activity (2)
By a method similar to that in Experimental Example 1-1 except that the lot of human […] expression plasmid is different, the TRPA1 antagonist activity of the test substance was measured.
As to `O=C(NCc1cc(-c2ccc(C(F)(F)F)nc2)ncn1)[C@@H]1CCN1S(=O)(=O)c1cc2cc(F)ccc2o1` [Example 388, (2S)-1-(5-fluorobenzofuran-2-yl)sulfonyl-N-[[6-[6-(trifluoromethyl)-3-pyridyl]pyrimidin-4-yl]methyl]azetidine-2-carboxamide], the IC50 came to 2.7 nM.
Same read-out and setting: then `O=C(NCc1ccnc(-c2cnc(C(F)(F)F)nc2)c1)[C@@H]1CCCN1S(=O)(=O)c1cc2cc(F)ccc2o1` [Example 402, (2S)-1-(5-fluorobenzofuran-2-yl)sulfonyl-N-[[2-[2-(trifluoromethyl)pyrimidin-5-yl]-4-pyridyl]methyl]pyrrolidine-2-carboxamide], with 3.5 nM; and `O=C(NCc1ccnc(-c2cnc(C(F)(F)F)nc2)c1)[C@@H]1CCN1S(=O)(=O)c1cc2cc(F)ccc2o1` [Example 403, (2S)-1-(5-fluorobenzofuran-2-yl)sulfonyl-N-[[2-[2-(trifluoromethyl)pyrimidin-5-yl]-4-pyridyl]methyl]azetidine-2-carboxamide], with 13 nM.
Same read-out and setting: in the case of `O=C(NCc1cc(-c2ccc(C(F)(F)F)nc2)ncn1)[C@@H]1CCN1S(=O)(=O)c1cc2ccccc2o1` [Example 408, (2S)-1-(benzofuran-2-ylsulfonyl)-N-[[6-[6-(trifluonomethyl)-3-pyridyl]pyrimidin-4-yl]methyl]azetidine-2-carboxamide] it was 16 nM; in that of `O=C(NCc1cccc(-c2cnc(C(F)(F)F)cn2)c1)[C@@H]1CCN1S(=O)(=O)c1cc2cc(F)ccc2o1` [Example 392, (2S)-1-(5-fluorobenzofuran-2-yl)sulfonyl-N-[[3-[5-(trifluoromethyl)pyrazin-2-yl]phenyl]methyl]azetidine-2-carboxamide], 4.6 nM.
On the same count and under the same terms, in the case of `O=C(NCc1cc(-c2ccc(OC(F)(F)F)cc2)ncn1)[C@@H]1CCCN1S(=O)(=O)c1cc2cc(F)ccc2o1` [Example 406, (2S)-1-(5-fluorobenzofuran-2-yl)sulfonyl-N-[[6-[4-(trifluoromethoxy)phenyl]-pyrimidin-4-yl]methyl]pyrrolidine-2-carboxamide] it was 2.7 nM; in that of `C[C@@H](C(=O)NCc1cc(-c2ccc(C(F)(F)F)cn2)ccn1)N(C)S(=O)(=O)c1cc2cc(F)ccc2o1` [Example 426, (2S)-2-[(5-fluorobenzofuran-2-yl)sulfonyl-methyl-amino]-N-[[4-[5-(trifluoromethyl)-2-pyridyl]-2-pyridyl]methyl]propanamide], 7.7 nM; in that of `O=C(NCc1ccc(O)c(-c2ccc(C(F)(F)F)cn2)c1)[C@@H]1CCN1S(=O)(=O)c1cc2cc(F)ccc2o1` [Example 404, (2S)-1-(5-fluorobenzofuran-2-yl)sulfonyl-N-[[4-hydroxy-3-[5-(trifluoromethyl)-2-pyridyl]phenyl]methyl]azetidine-2-carboxamide], 9.7 nM.
As to `O=C(NCc1cc(-c2ccc(C(F)(F)F)cc2)nc(N2CCOCC2)n1)[C@@H]1CCCN1S(=O)(=O)c1cc2ccccc2o1` [Example 330, (2S)-1-(benzofuran-2-ylsulfonyl)-N-[[2-morpholino-6-[4-(trifluoromethyl)phenyl]pyrimidin-4-yl]methyl]pyrrolidine-2-carboxamide], the IC50 stood at 15 nM.
In the case of `CN(CC(=O)NCc1cc(-c2ccc(OC(F)(F)F)cc2)ncn1)S(=O)(=O)c1cc2cc(F)ccc2o1` [Example 362, 2-[(5-fluorobenzofuran-2-yl)sulfonyl-methyl-amino]-N-[[6-[4-(trifluoromethoxy)-phenyl]pyrimidin-4-yl]methyl]acetamide], the IC50 worked out at 7 nM.
Turning to `CCN([C@@H](C)C(=O)NCc1cc(-c2ccc(C(F)(F)F)cn2)ccn1)S(=O)(=O)c1cc2cc(F)ccc2o1` [Example 416, (2S)-2-[ethyl-(5-fluorobenzofuran-2-yl)sulfonyl-amino]-N-[[4-[5-(trifluoromethyl)-2-pyridyl]-2-pyridyl]methyl]propanamide], the IC50 was 4.2 nM.
In the case of `O=C(NCc1ccnc(-c2ccc(C(F)F)cc2)c1)[C@@H]1CCCN1S(=O)(=O)c1cc2ccccc2o1` [Example 332, (2S)-1-(benzofuran-2-ylsulfonyl)-N-[[2-[4-(difluoromethyl)phenyl]-4-pyridyl]methyl]pyrrolidine-2-carboxamide], the IC50 was 16 nM.
In the case of `O=C(NCc1cc(-c2ccc(C(F)(F)F)cn2)ncn1)[C@@H]1CCN1S(=O)(=O)c1cc2cc(F)ccc2o1` [Example 401, (2S)-1-(5-fluorobenzofuran-2-yl)sulfonyl-N-[[6-[5-(trifluoromethyl)-2-pyridyl]pyrimidin-4-yl]methyl]azetidine-2-carboxamide], the 50% inhibitory concentration (IC50) is 12 nM.
Take `O=C(NCc1ccnc(-c2ccc(C(F)(F)F)cc2O)c1)[C@@H]1CCN1S(=O)(=O)c1cc2cc(F)ccc2o1` [Example 383, (2S)-1-(5-fluorobenzofuran-2-yl)sulfonyl-N-[[2-[2-hydroxy-4-(trifluoromethyl)phenyl]-4-pyridyl]methyl]azetidine-2-carboxamide]: the IC50 came out at 9.7 nM.
For the compound `CC(C)N(CC(=O)NCc1ccc(O)c(-c2ccc(C(F)(F)F)cn2)c1)S(=O)(=O)c1cc2cnccc2o1` [Example 374, 2-[furo[3,2-c]pyridin-2-ylsulfonyl(isopropyl)amino]-N-[[4-hydroxy-3-[5-(trifluoromethyl)-2-pyridyl]-phenyl]methyl]acetamide], the IC50 came to 15 nM.
